Data on 14 compounds can be found in patent publication US9708318B2, “Bicyclic heterocycles as FGFR4 inhibitors” (Incyte Corporation, priority 2015, dated 2017).

Like-named read-outs stand apart in the source and are kept apart here.

One assay addresses FGFR2 (Homo sapiens (Human), UniProt P21802). The assay can be described thus: FGFR Enzymatic Assay (FRET peptide phosphorylation), FGFR2. The assay is classed as biochemical. How it is done:
(§1) The inhibitor potency of the exemplified compounds was measured in an enzyme assay that measures peptide phosphorylation using FRET measurements to detect product formation. Inhibitors were serially diluted in DMSO and a volume of 0.5 μL was transferred to the wells of a 384-well plate.
(§2) The enzymes were purchased from Millipore or Invitrogen.
(§3) GraphPad prism3 was used to analyze the data.

In the next assay the target is FGFR3 enzyme (Homo sapiens (Human), UniProt P22607). The assay can be described thus: FGFR Enzymatic Assay (FRET peptide phosphorylation), FGFR3. The conditions noted are these: for IC50: read-out: FGFR3 IC50. The assay is classed as biochemical. As to the method:
as §1, §3

The target in a further assay is FGFR4 (Homo sapiens (Human), UniProt P22455). The assay can be described thus: FGFR Enzymatic Assay (FRET peptide phosphorylation), FGFR4. The assay is classed as biochemical. The following applies: for FGFR1/FGFR4 IC50 ratio / FGFR2/FGFR4 IC50 ratio / FGFR3/FGFR4 IC50 ratio: FGFR4 selectivity. As to the method:
as §1, §2, §3

The target in a further assay is FGFR1 (Homo sapiens (Human), UniProt P11362). The assay can be described thus: FGFR Enzymatic Assay (FRET peptide phosphorylation), FGFR1.
Sequence of FGFR1 (P11362 22-822): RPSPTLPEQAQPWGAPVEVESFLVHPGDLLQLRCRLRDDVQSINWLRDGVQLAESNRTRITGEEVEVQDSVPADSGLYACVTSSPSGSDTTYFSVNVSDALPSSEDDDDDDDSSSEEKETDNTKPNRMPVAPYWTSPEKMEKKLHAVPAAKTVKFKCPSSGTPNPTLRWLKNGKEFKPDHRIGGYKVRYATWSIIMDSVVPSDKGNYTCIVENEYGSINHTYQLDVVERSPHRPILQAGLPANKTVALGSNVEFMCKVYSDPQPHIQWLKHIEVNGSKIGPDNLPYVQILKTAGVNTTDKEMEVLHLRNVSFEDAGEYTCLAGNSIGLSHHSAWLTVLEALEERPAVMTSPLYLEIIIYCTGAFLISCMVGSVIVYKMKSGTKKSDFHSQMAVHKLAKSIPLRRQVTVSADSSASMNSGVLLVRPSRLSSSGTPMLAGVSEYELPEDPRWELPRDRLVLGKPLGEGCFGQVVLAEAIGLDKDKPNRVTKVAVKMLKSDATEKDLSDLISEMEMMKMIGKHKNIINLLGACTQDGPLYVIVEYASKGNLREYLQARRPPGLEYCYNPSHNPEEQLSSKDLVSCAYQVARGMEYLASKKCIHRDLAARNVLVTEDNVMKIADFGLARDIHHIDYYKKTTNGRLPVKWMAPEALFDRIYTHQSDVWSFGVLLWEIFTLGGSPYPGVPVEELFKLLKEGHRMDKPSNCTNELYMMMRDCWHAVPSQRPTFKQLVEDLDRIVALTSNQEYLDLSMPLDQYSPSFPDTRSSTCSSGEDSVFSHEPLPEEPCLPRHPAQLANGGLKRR
Where [1] appears, read: pre-incubated for 5 to 10 minutes.
[2] abbreviates: FGFR1 IC50 (nM), pre-incubated for 5 to 10 minutes.
Where [3] appears, read: FGFR1 IC50 (nM), pre-incubated for 4 hours.
Setting [4] is: read-out: FGFR1 IC50, pre-incubated for 4 hours.

Sequence of FGFR4 (P22455 22-802): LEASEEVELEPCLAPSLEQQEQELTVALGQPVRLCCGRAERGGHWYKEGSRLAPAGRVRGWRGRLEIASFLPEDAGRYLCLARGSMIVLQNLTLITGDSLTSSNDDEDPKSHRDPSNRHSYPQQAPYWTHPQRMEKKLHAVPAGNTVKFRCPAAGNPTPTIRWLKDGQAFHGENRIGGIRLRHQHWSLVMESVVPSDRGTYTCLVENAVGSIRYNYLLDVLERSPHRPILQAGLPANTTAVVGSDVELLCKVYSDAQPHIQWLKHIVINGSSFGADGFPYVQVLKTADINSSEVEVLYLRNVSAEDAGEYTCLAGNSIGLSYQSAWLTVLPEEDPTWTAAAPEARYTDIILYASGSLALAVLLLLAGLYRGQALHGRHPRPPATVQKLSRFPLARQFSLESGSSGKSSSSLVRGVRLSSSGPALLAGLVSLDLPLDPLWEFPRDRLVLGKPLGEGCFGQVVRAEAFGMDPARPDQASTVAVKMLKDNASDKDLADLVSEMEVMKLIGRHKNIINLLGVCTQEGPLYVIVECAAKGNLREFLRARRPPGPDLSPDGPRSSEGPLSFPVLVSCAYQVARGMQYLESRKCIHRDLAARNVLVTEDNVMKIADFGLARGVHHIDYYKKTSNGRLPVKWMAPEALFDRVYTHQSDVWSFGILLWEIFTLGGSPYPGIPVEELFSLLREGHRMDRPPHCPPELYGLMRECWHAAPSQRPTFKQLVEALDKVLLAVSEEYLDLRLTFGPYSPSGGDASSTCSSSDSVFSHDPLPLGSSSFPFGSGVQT
Sequence of FGFR3 enzyme (P22607 23-806): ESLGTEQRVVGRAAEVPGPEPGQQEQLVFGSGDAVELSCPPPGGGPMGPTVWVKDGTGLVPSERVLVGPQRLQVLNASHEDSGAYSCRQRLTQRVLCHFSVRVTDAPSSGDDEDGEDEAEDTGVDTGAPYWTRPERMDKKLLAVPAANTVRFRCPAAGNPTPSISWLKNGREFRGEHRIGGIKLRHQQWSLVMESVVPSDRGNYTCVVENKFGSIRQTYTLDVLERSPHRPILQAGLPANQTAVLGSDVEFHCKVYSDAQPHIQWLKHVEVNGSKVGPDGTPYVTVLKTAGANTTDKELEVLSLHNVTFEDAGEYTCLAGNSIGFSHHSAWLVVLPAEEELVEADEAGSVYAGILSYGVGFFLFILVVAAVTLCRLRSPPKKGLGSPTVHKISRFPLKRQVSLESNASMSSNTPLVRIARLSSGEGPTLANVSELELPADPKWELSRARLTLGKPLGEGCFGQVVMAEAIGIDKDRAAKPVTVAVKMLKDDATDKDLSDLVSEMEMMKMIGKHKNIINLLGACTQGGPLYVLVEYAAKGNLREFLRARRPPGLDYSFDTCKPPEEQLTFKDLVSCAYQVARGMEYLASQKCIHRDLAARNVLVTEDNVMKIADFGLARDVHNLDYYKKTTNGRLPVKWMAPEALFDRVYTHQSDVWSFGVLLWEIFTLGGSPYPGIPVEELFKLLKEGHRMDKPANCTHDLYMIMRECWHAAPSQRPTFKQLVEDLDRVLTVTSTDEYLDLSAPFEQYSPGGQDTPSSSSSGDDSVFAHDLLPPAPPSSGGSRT
Sequence of FGFR2 (P21802 22-821): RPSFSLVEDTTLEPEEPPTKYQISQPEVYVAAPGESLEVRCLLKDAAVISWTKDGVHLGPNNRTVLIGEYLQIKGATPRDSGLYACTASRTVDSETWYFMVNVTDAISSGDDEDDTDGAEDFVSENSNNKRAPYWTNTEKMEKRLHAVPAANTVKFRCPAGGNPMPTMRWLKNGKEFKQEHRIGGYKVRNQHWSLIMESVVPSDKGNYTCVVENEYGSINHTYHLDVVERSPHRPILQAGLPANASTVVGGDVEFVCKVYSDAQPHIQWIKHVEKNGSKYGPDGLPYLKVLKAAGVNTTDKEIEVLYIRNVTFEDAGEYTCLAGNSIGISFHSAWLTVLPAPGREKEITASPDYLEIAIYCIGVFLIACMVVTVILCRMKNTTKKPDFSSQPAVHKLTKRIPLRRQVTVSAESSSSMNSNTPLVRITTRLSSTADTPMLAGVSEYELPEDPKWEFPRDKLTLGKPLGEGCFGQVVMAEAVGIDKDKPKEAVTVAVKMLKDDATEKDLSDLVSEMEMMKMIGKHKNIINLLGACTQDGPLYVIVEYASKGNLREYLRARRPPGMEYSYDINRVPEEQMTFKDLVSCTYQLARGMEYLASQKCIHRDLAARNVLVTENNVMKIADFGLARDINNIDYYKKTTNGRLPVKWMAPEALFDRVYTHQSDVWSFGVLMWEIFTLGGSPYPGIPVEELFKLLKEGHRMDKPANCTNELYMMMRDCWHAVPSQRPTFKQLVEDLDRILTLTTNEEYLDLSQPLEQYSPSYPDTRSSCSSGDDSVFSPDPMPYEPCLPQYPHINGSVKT

As to `COc1cncc(-c2cc3c(cn2)CN(c2c(F)c(OC)cc(OC)c2F)C(=O)C32CC2)c1` [Example 10, 2′-(2,6-difluoro-3,5-dimethoxyphenyl)-6′-(5-methoxypyridin-3-yl)-1′H-spiro[cyclopropane-1,4′-[2,7]naphthyridin]-3′(2′H)-one], the IC50 against FGFR2 (setting [1]) is 10 to 30 nM; at FGFR2 (pre-incubated for 4 hours) it was 10 to 30 nM; on FGFR3 enzyme (setting [1]), 10 to 30 nM; on FGFR3 enzyme (pre-incubated for 4 hours) it was 10 to 30 nM; against FGFR4 (setting [1]) it was less than 10 nM; against FGFR4 (pre-incubated for 4 hours), less than 10 nM. Besides, the IC50 on FGFR1 (setting [2]) and against FGFR1 (setting [3]) was 30 to 200 nM throughout. Further, at FGFR3 enzyme (FGFR3 selectivity, pre-incubated for 4 hours), the “FGFR1/FGFR3 IC50 ratio” value was greater than 1. Moreover, the “FGFR1/FGFR4 IC50 ratio” value on FGFR4 (setting [1]) and on FGFR4 (pre-incubated for 4 hours) was greater than 25 throughout. The “FGFR2/FGFR4 IC50 ratio” value at FGFR4 (setting [1]) was greater than 10; on FGFR4 (pre-incubated for 4 hours), greater than 25. In addition, the “FGFR3/FGFR4 IC50 ratio” value on FGFR4 (setting [1]) and on FGFR4 (pre-incubated for 4 hours) was greater than 10 throughout.

For `CCOc1cc(CN2C(=O)N(c3c(F)c(OC)cc(OC)c3F)Cc3cnc(-c4cn(C)nc4C)cc32)ccn1` [Example 116, 3-(2,6-difluoro-3,5-dimethoxyphenyl)-7-(1,3-dimethyl-1H-pyrazol-4-yl)-1-((2-ethoxypyridin-4-yl)methyl)-3,4-dihydropyrido[4,3-d]pyrimidin-2(1H)-one], the IC50 at FGFR2 (setting [1]) was less than 10 nM; on FGFR3 enzyme (setting [1]) it was less than 10 nM; against FGFR4 (setting [1]) it was 10 to 30 nM; on FGFR1 (setting [2]), 10 to 30 nM.

Consider `COc1cc(OC)c(F)c(N2Cc3cnc(-c4cn(C)nc4C)cc3N(C3CC(=O)N(C)C3)C2=O)c1F` (stereo not shown) [Example 42, 3-(2,6-difluoro-3,5-dimethoxyphenyl)-7-(1,3-dimethyl-1H-pyrazol-4-yl)-1-(1-methyl-5-oxopyrrolidin-3-yl)-3,4-dihydropyrido[4,3-d]pyrimidin-2(1H)-one], for which the IC50 at FGFR2 (pre-incubated for 4 hours) was […]; on FGFR4 (pre-incubated for 4 hours), […]; on FGFR1 (setting [4]), […].

For `COc1cc(OC)c(F)c(N2Cc3cnc(-c4cn(C)nc4C)cc3N(CC3CC(=O)N(C)C3)C2=O)c1F` (stereo not shown) [Example 96, 3-(2,6-difluoro-3,5-dimethoxyphenyl)-7-(1,3-dimethyl-1H-pyrazol-4-yl)-1-((1-methyl-5-oxopyrrolidin-3-yl)methyl)-3,4-dihydropyrido[4,3-d]pyrimidin-2(1H)-one], the IC50 on FGFR2 (pre-incubated for 4 hours) was […]; on FGFR4 (pre-incubated for 4 hours), […]; against FGFR1 (setting [3]), […].

As to `CCNC(=O)c1ccc(-c2cc3c(cn2)CN(c2c(F)c(OC)cc(OC)c2F)C(=O)N3CC)cn1` [Example 175, 5-(3-(2,6-difluoro-3,5-dimethoxyphenyl)-1-ethyl-2-oxo-1,2,3,4-tetrahydropyrido[4,3-d]pyrimidin-7-yl)-N-ethylpicolinamide], the IC50 against FGFR2 (setting [1]) is […]; on FGFR2 (pre-incubated for 4 hours) it was […]; on FGFR3 enzyme (setting [1]), […]; at FGFR3 enzyme (pre-incubated for 4 hours), […]; at FGFR1 (setting [2]), […]; on FGFR1 (setting [3]) it was […].

Consider `CCN1C(=O)N(c2c(F)c(OC)cc(OC)c2F)Cc2cnc(-c3cnn(C)c3)cc21` [Example 169, 3-(2,6-difluoro-3,5-dimethoxyphenyl)-1-ethyl-7-(1-methyl-1H-pyrazol-4-yl)-3,4-dihydropyrido[4,3-d]pyrimidin-2(1H)-one], for which the IC50 on FGFR2 (setting [1]) is less than 10 nM; against FGFR2 (pre-incubated for 4 hours) it was less than 10 nM; at FGFR3 enzyme (setting [1]), less than 10 nM; on FGFR3 enzyme (pre-incubated for 4 hours), less than 10 nM; on FGFR1 (read-out: FGFR1 IC50, pre-incubated for 5 to 10 minutes) it was less than 10 nM; at FGFR1 (setting [4]), less than 10 nM.

In the case of `CCc1nnc(CN2C(=O)N(c3c(F)c(OC)cc(OC)c3F)Cc3cnc(-c4cn(C)nc4C)cc32)o1` [Example 67, 3-(2,6-difluoro-3,5-dimethoxyphenyl)-7-(1,3-dimethyl-1H-pyrazol-4-yl)-1-((5-ethyl-1,3,4-oxadiazol-2-yl)methyl)-3,4-dihydropyrido[4,3-d]pyrimidin-2(1H)-one], the results for the IC50 at FGFR2 (pre-incubated for 4 hours), at FGFR3 enzyme (pre-incubated for 4 hours) and against FGFR1 (setting [3]) were less than 10 nM, less than 10 nM and […], respectively.

As for `COc1cc(OC)c(F)c(N2Cc3cnc(-c4cn(C)nc4C)cc3N(Cc3nnc(C)o3)C2=O)c1F` [Example 46, 3-(2,6-difluoro-3,5-dimethoxyphenyl)-7-(1,3-dimethyl-1H-pyrazol-4-yl)-1-[(5-methyl-1,3,4-oxadiazol-2-yl)methyl]-3,4-dihydropyrido[4,3-d]pyrimidin-2(1H)-one], the IC50 against FGFR2 (pre-incubated for 4 hours) was […]; on FGFR3 enzyme (pre-incubated for 4 hours), […]; against FGFR1 (setting [3]), […].

For the compound `CCN1C(=O)N(c2c(F)c(OC)cc(OC)c2F)Cc2cnc(-c3ccc(C(=O)NC(C)C)nc3)cc21` [Example 178, 5-(3-(2,6-difluoro-3,5-dimethoxyphenyl)-1-ethyl-2-oxo-1,2,3,4-tetrahydropyrido[4,3-d]pyrimidin-7-yl)-N-isopropylpicolinamide], the IC50 is […] against FGFR2 (pre-incubated for 4 hours), […] on FGFR3 enzyme (pre-incubated for 4 hours) and […] on FGFR1 (setting [3]).

Regarding `COc1cc(OC)c(F)c(N2Cc3cnc(-c4cn(C)nc4C)cc3N(Cc3cc(C)no3)C2=O)c1F` [Example 35, 3-(2,6-difluoro-3,5-dimethoxyphenyl)-7-(1,3-dimethyl-1H-pyrazol-4-yl)-1-((3-methylisoxazol-5-yl)methyl)-3,4-dihydropyrido[4,3-d]pyrimidin-2(1H)-one], the values for the IC50 at FGFR2 (pre-incubated for 4 hours), at FGFR3 enzyme (pre-incubated for 4 hours) and at FGFR1 (setting [3]) were […], […] and […], respectively.

Regarding `COc1cc(OC)c(F)c(N2Cc3cnc(-c4cn(C)nc4C)cc3N(Cc3cc(C)on3)C2=O)c1F` [Example 31, 3-(2,6-difluoro-3,5-dimethoxyphenyl)-7-(1,3-dimethyl-1H-pyrazol-4-yl)-1-((5-methylisoxazol-3-yl)methyl)-3,4-dihydropyrido[4,3-d]pyrimidin-2(1H)-one], the IC50 at FGFR2 (pre-incubated for 4 hours) was […]; at FGFR3 enzyme (pre-incubated for 4 hours), […]; at FGFR1 (setting [3]), […].

Consider `CCCN1C(=O)N(c2c(F)c(OC)cc(OC)c2F)Cc2cnc(-c3cn(C)nc3C)cc21` [Example 30, 3-(2,6-difluoro-3,5-dimethoxyphenyl)-7-(1,3-dimethyl-1H-pyrazol-4-yl)-1-propyl-3,4-dihydropyrido[4,3-d]pyrimidin-2(1H)-one], for which the IC50 was […] on FGFR2 (pre-incubated for 4 hours), […] on FGFR3 enzyme (pre-incubated for 4 hours) and […] at FGFR1 (setting [3]).

Take `COc1cc(OC)c(F)c(N2Cc3cnc(-c4cnn(C5(C#N)CCC5)c4C)cc3C3(CC3)C2=O)c1F` [Example 149, 1-(4-(2′-(2,6-difluoro-3,5-dimethoxyphenyl)-3′-oxo-2′,3′-dihydro-1′H-spiro[cyclopropane-1,4′-[2,7]naphthyridine]-6′-yl)-5-methyl-1H-pyrazol-1-yl)cyclobutanecarbonitrile]: the values for the half-maximal inhibitory concentration (IC50) on FGFR2 (pre-incubated for 4 hours), at FGFR3 enzyme (pre-incubated for 4 hours) and on FGFR1 (setting [3]) were less than 10 nM, less than 10 nM and […], respectively.

For the compound `CCN1C(=O)N(c2c(F)c(OC)cc(OC)c2F)Cc2cnc(-c3ccn(C)n3)cc21` [Example 141, 3-(2,6-difluoro-3,5-dimethoxyphenyl)-1-ethyl-7-(1-methyl-1H-pyrazol-3-yl)-3,4-dihydropyrido[4,3-d]pyrimidin-2(1H)-one], the values for the half-inhibitory concentration (IC50) against FGFR2 (setting [1]), on FGFR3 enzyme (setting [1]) and on FGFR1 (setting [2]) were […], […] and […], respectively.

In general, IC50 refers to the point on the concentration scale where inhibition reaches its midpoint.
